Structures can show the parent of a compound that is named as a salt.
Experiments:
[1] = system: cells of the large-cell lung carcinoma of the tumor line LXFL-529L; assay: Tumor cell growth inhibition, SRB-assay, LXFL-529L; format: cell-based; settings: 50% growth inhibition, three days incubation in serum-containing medium
[2] = system: cells of the mammary carcinoma cell line MCF-7; assay: Tumor cell growth inhibition, SRB-assay, MCF-7; format: cell-based; settings: 50% growth inhibition, three days incubation in serum-containing medium

| IC50 [1] [µM] | IC50 [2] [µM] | Compound |
| --- | --- | --- |
| 7 ± 1.1 | 9.2 ± 0.9 | CN(C)C(=O)CON=C1C(=C2C(=O)Nc3ccccc32)Nc2ccccc21 [Example 43, N,N-dimethyl-2{O-[2′-(2-oxo-(2H3H)indol-3-ylidene)-(2′H3′H)indol-3′-ylidene]-aminooxy}-acetamide] |
| 4 ± 0.2 | 0.5 ± 0.2 | CC(C)c1ccc2c(c1)/C(=C1/Nc3ccccc3C1=O)C(=O)N2 [Example 3, 5-isopropyl-indirubin] |
| 19 ± 0.9 | 10.5 ± 0.6 | 3-{3′-[iminooxy-O-(3-D-glucopyranosylpropyl)]-(2′H3′H)indol-2′-ylidene}-(2H3H)indol-2-one [Example 45] |
| 10 ± 0.8 |  | CC(=O)Nc1ccc2c(c1)C(=C1Nc3ccccc3C1=O)C(=O)N2 [Example 16, 5-acetylamino-indirubin] |
| 11.6 ± 0.8 | 13.6 ± 1.2 | O=C1Nc2ccccc2C1=C1Nc2ccccc2C1=NOCCNCCO [Example 59, 3-{3′-[iminooxy-O-(N-hydroxyethyl-2-amino-ethyl)]-(2′H3′H)indol-2′-ylidene}-(2H3H)indol-2-one] |
| 8 ± 0.6 | 9.5 ± 0.8 | O=C1Nc2ccccc2C1=C1Nc2ccccc2C1=NOCCN1CCNCC1 [Example 63, 3-{3′-[iminooxy-O-(2-(piperazin-1-yl)-ethyl)]-(2′H3′H)indol-2′-ylidene}-(2H3H)indol-2-one] |
| 23 ± 1.4 |  | O=C1Nc2ccccc2C1=C1Nc2ccccc2C1=NOCCN[C@H]1C(O)O[C@H](CO)[C@H](O)[C@@H]1O (stereo partly shown) [Example 57, 3-{3′-[iminooxy-O-(N-(2-deoxy-galactose)-2-amino-ethyl)]-(2′H3′H)indol-2′-ylidene}-(2H3H)indol-2-one] |
| 4 ± 0.3 | 3.5 ± 0.4 | NCCNc1ccc2c(c1)C(=C1Nc3ccccc3C1=O)C(=O)N2 [Example 20, 5-(2-amino-ethyl)-amino-indirubin] |
| 8 ± 0.3 | 12.4 ± 0.7 | 3-{3′-[iminooxy-O-((N,N)-bis(hydroxyethyl)-4-amino-butyl)]-(2H3H)indol-2′-ylidene}-(2H3H)indol-2-one [Example 61] |
| 7 ± 0.6 | 8 ± 1.2 | 3-{3′-[iminooxy-O-(2-(2-amino-ethyl)-amino-ethyl)]-(2′H3′H)indol-2′-ylidene}-(2H3H)indol-2-one [Example 66] |
| 14 ± 1 | 13.5 ± 1.3 | O=C1Nc2ccccc2C1=C1Nc2ccccc2C1=NOCCCCCCCCCCN(CCO)CCO [Example 62] |
| 7 ± 0.4 | 6.5 ± 0.5 | CCCc1ccc2c(c1)C(=C1Nc3ccccc3C1=O)C(=O)N2 [Example 4, 5-n-propyl-indirubin] |
|  | 7.5 ± 0.8 | CN1CCN(CCON=C2C(=C3C(=O)Nc4ccccc43)Nc3ccccc32)CC1 [Example 65, 3-{3′-[iminooxy-O-(2-(4-methyl-piperazin-1-yl)-ethyl)]-(2′H3′H)indol-2′-ylidene}-(2H3H)indol-2-one] |
| 3 ± 0.4 | 4.5 ± 0.5 | O=C1Nc2ccccc2C1=C1Nc2ccccc2C1=NOCCN(CCO)CCO [Example 60, 3-{3′-[iminooxy-O-((N,N)-bis(hydroxyethyl)-2-amino-ethyl)]-(2′H3′H)indol-2′-ylidene}-(2H3H)indol-2-one] |
| 3.5 ± 0.7 | 4 ± 0.6 | NCCNC(=O)Cc1ccc2c(c1)C(=C1Nc3ccccc3C1=O)C(=O)N2 [Example 8, N-(2-amino-ethyl)-2-[3-(3′-oxo-(2′H3′H)indol-2′-ylidene)-(2H3H)indol-2-one-5-yl]-acetamide] |
| 17 ± 1.2 | 9.5 ± 0.9 | 3-{3′-[iminooxy-O-(2-D-galactopyranosylethyl)]-(2′H3′H)indol-2′-ylidene}-(2H3H)indol-2-one [Example 47] |
| 15 ± 0.9 | 7 ± 0.7 | 3-{3′-[iminooxy-O-(2-(2-amino-2-deoxy-D-glucopyranosyl)-ethyl)]-(2′H3′H)indol-2′-ylidene}-(2H3H)indol-2-one [Example 53] |

| IC50 [1] [µM] | IC50 [2] [µM] | Compound |
| --- | --- | --- |
| 1 ± 0.5 | 1.5 ± 0.6 | Cc1ccc2c(c1)C(=C1Nc3ccccc3C1=NOCCO)C(=O)N2 [Example 67, 3-[3′-[iminooxy-O-(2-hydroxy-ethyl)]-(2H′3H′)indol-2′-ylidene]-5-methyl-(2H3H)indol-2-one] |
| 6 ± 0.8 | 6 ± 0.7 | NCC(=O)Nc1ccc2c(c1)C(=C1Nc3ccccc3C1=NO)C(=O)N2 [Example 30, 2-amino-N-[3-(3′-hydroxyimino-(2H3H)indol-2′-ylidene)-(2H3H)-indol-2-one-5-yl]-acetamide] |
| 2 ± 0.3 | 6 ± 0.5 | NC(=O)CON=C1C(=C2C(=O)Nc3ccccc32)Nc2ccccc21 [Example 42, 2-{O-[2′-(2-oxo-(2H3H)indol-3-ylidene)-(2′H3′H)indol-3′-ylidene]-aminooxy}-acetamide] |
|  | 16 ± 0.7 | O=C(O)CCON=C1C(=C2C(=O)Nc3ccccc32)Nc2ccccc21 [Example 36, 3-{O-[2′-(2-oxo-(2H3H)indol-3-ylidene)-(2′H3′H)indol-3′-ylidene]-aminooxy}-propionic Acid (Sodium Salt)] |
| 7 ± 0.7 | 5 ± 0.6 | CC(N)C(=O)Nc1ccc2c(c1)C(=C1Nc3ccccc3C1=O)C(=O)N2 (stereo not shown) [Example 19, 2-amino-N-[3-(3′-oxo-(2′H3′H)indol-2′-ylidene)-(2H3H)indol-2-one-5-yl]-propionamide] |
| 20.5 ± 1.4 | 5 ± 0.7 | 3-{3′-[iminooxy-O-(2-L-arabinopyranosylethyl)]-(2′H3′H)indol-2′-ylidene}-(2H3H)indol-2-one [Example 49] |
| 16 ± 1.1 | 9 ± 0.9 | 3-{3′-[iminooxy-O-(2-(2-amino-2-deoxy-D-galactopyranosyl)-ethyl)]-(2′H3′H)indol-2′-ylidene}(2H3H)indol-2-one [Example 54] |
| 5.5 ± 0.6 | 5 ± 0.9 | CC(C)c1ccc2c(c1)C(=C1Nc3ccccc3C1=NO)C(=O)N2 [Example 27, 5-isopropyl-indirubin-3′-monooxime] |
| 3.5 ± 0.7 | 2.5 ± 0.9 | 3-[3′-[iminooxy-O-(N-(1-deoxy-glucitol)-2-amino-ethyl)]-(2H′3H′)indol-2′-ylidene]-5-methyl-(2H3H)indol-2-one [Example 69] |
| 10 ± 0.6 | 9 ± 1.2 | O=C1Nc2ccccc2C1=C1Nc2ccccc2C1=NOCCN1CCOCC1 [Example 64, 3-{3′-[iminooxy-O-(2-(morpholin-4-yl)-ethyl)]-(2′H3′)indol-2′-ylidene}-(2H3H)indol-2-one] |
| 4.5 ± 0.8 | 3 ± 0.9 | indirubin-5-sulfonic acid-(morpholin-4-yl-amide) [Example 23] |
| 4 ± 0.9 | 5 ± 0.5 | CC(=O)Nc1ccc2c(c1)C(=C1Nc3ccccc3C1=NO)C(=O)N2 [Example 29, 5-acetylamino-indirubin-3′-monooxime] |
| 12 ± 1.3 | 14 ± 1.2 | O=C1Nc2ccccc2C1=C1Nc2ccccc2C1=NOCCN[C@H]1C(O)O[C@H](CO)[C@@H](O)[C@@H]1O (stereo partly shown) [Example 56, 3-{3′-[iminooxy-O-(N-(2-deoxy-glucose)-2-amino-ethyl)]-(2′H3′H)indol-2′-ylidene}-(2H3H)indol-2-one] |
| 4 ± 0.4 | 3 ± 0.3 | NCC(=O)Nc1ccc2c(c1)C(=C1Nc3ccccc3C1=O)C(=O)N2 [Example 18, 2-amino-N-[3-(3′-oxo-(2′H3′H)indol-2′-ylidene)-(2H3H)indol-2-one-5-yl]-acetamide] |
| 14 ± 0.8 | 14 ± 0.7 | O=C(O)CCCCON=C1C(=C2C(=O)Nc3ccccc32)Nc2ccccc21 [Example 38, 5{O-[2′-(2-oxo-(2H3H)indol-3-ylidene)-(2′H3′H)indol-3′-ylidene]-aminooxy}-pentanoic Acid (Sodium Salt)] |
|  | 19.5 ± 1.4 | O=C(O)Cc1ccc2c(c1)C(=C1Nc3ccccc3C1=O)C(=O)N2 [Example 5, 5-(carboxymethyl)-indirubin] |

| Compound | IC50 [1] [µM] | IC50 [2] [µM] |
| --- | --- | --- |
| O=C(O)CCCON=C1C(=C2C(=O)Nc3ccccc32)Nc2ccccc21 [Example 37, 4-{O-[2′-(2-oxo-(2H3H)indol-3-ylidene)-(2′H3′H)indol-3′-ylidene]-aminooxy}-butyric Acid (Sodium Salt)] | 12 ± 1 | 14 ± 1.1 |
| 3-{3′-[iminooxy-O-(O^4-α-D-glucopyranosyl-2-D-glucopyranosylethyl)]-(2′H3′H)indol-2′-ylidene}-(2H3H)indol-2-one [Example 46] | 24 ± 1.3 | 7 ± 0.9 |
| O=C1Nc2ccc(CP(=O)(O)O)cc2C1=C1Nc2ccccc2C1=O [Example 13, [3-(3′-oxo-(2′H3′H)indol-2′-ylidene)-(2H3H)indol-2-one-5-yl]-methyl-phosphonic Acid] | 8.5 ± 0.8 | 6.5 ± 1 |
| COC(=O)CNS(=O)(=O)c1ccc2c(c1)C(=C1Nc3ccccc3C1=O)C(=O)N2 [Example 24, methyl-2-{[3-(3′-oxo-(2′H3′H)indol-2′-ylidene)-(2H3H)indol-2-one-5-yl]-sulfonylamino}-acetate] | 16 ± 0.8 | 25 ± 0.9 |
| CN(C)C(=O)ON=C1C(=C2C(=O)Nc3ccccc32)Nc2ccccc21 [Example 41, 3-{3′-[iminooxy-O-((N,N)-dimethyl-carbamoyl)]-(2′H3′H)indol-2′-ylidene}-(2H3H)indol-2-one] | 5 ± 0.6 | 7.5 ± 0.9 |
| O=C1Nc2ccc(CC(=O)N3CCOCC3)cc2C1=C1Nc2ccccc2C1=O [Example 7, 5-[2-(morpholin-4-yl)-ethan-2-one-1-yl]-indirubin] | 5.5 ± 0.7 | 7.5 ± 0.6 |
| O=C1Nc2ccc(CC(=O)N3CCNCC3)cc2C1=C1Nc2ccccc2C1=O [Example 6, 5-[2-(piperazin-1-yl)-ethan-2-one-1-yl]-indirubin] | 4 ± 0.5 | 8 ± 0.9 |
| CCOC(=O)CON=C1C(=C2C(=O)Nc3ccccc32)Nc2ccccc21 [Example 40, ethyl-2{O-[2′-(2-oxo-(2H3H)indol-3-ylidene)-(2′H3′H)indol-3′-ylidene]-aminooxy}-acetate] | 6 ± 0.4 | 10 ± 0.7 |
| CC(C)(O)CON=C1C(=C2C(=O)Nc3ccccc32)Nc2ccccc21 [Example 34, 3-{3′-[iminooxy-O-((2-hydroxy-2-methyl)-propyl)]-(2′H3′H)indol-2′-ylidene}-(2H3H)indol-2-one] | 2 ± 0.5 | 2 ± 0.3 |
